In US4698352A, “4-oxo-1,4-dihydronicotinic acid derivatives, salts thereof, and antibacterial agents containing the same” (Toyama Chemical Co., Ltd., priority 1982, dated 1987):
Converted amounts (≈) assume the structure as drawn. Read-outs that look alike come from different tables or passages of the source.

Tests used:
Test in all cases: Antibacterial activity (MIC), agar dilution
Type in all cases: cell-based
[1] = system: E. coli GN5482**; settings: Escherichia coli, 20 h; E. coli GN5482, cephalospolinase-producing; 10^6 cells per ml; read-out: MIC
Text: (§1) The amount of bacteria inoculated was 10^4 cells per plate (10^6 cells per ml).
(§2) ** Cephalospolinase-producing bacteria

[2] = system: Ps. aeruginosa GN918**; settings: Ps. aeruginosa GN918, cephalospolinase-producing, 10^6 cells per ml
Text: as §1, §2

[3] = system: Pro. vulgaris GN76**; settings: Proteus vulgaris
Text: as §1, §2

[4] = system: Pro. mirabilis T-111; settings: Proteus mirabilis, 37° C.
Text: as §1

[5] = system: E. coli NIHJ JC-2; settings: Escherichia coli, NIHJJC2, 20 h
Text: as §1

[6] = system: Aci. antitratus A-6; settings: 20 h, Aci. antitratus A-6; 10^6 cells per ml; 37° C., 20 hours; read-out: MIC
Text: as §1

[7] = system: Ps. aeruginosa S-68; settings: Pseudomonas aeruginosa
Text: as §1

[8] = system: Pro. morganii T-216; settings: Morganella morganii, 37° C.
Text: as §1

[9] = system: St. aureus FDA209P; settings: Staphylococcus aureus, FDA209P, 20 h
Text: as §1

[10] = system: Kl. pneumoniae Y-41; settings: Klebsiella pneumoniae, Y41, 10^6 cells per ml, 37° C., 20 hours, read-out: MIC
Text: as §1

[11] = system: Ent. cloacae IID977; settings: Enterobacter cloacae, IID977, 20 h
Text: as §1

[12] = system: E. coli TK-111; settings: Escherichia coli, TK111, 20 h, E. coli TK-111; 10^6 cells per ml; 37° C., 20 hours; read-out: MIC
Text: as §1

[13] = system: Ps. aeruginosa IFO3445; settings: Pseudomonas aeruginosa; Ps. aeruginosa IFO3445; 10^6 cells per ml; 37° C., 20 hours; read-out: MIC
Text: as §1

[14] = system: Pro. vulgaris GN3027; settings: Proteus vulgaris, GN3027, 20 h, Pro. vulgaris GN3027; 10^6 cells per ml; 37° C., 20 hours; read-out: MIC
Text: as §1

[15] = system: Kl. pneumoniae Y-50; settings: Klebsiella pneumoniae, Y50, 20 h, 10^6 cells per ml, 37° C., read-out: MIC
Text: as §1

[16] = system: E. coli TK-3*; settings: Escherichia coli, 20 h
Text: as §1
(§3) * Penicillinase-producing bacteria

[17] = system: Kl. pneumoniae Y-4*; settings: Klebsiella pneumoniae, 20 h, Kl. pneumoniae Y-4, penicillinase-producing; 10^6 cells per ml; read-out: MIC
Text: as §1, §3

[18] = system: Ps. aeruginosa GN3379*; settings: Pseudomonas aeruginosa, 20 h; Ps. aeruginosa GN3379, penicillinase-producing; 10^6 cells per ml; read-out: MIC
Text: as §1, §3

[19] = system: St. aureus F-137*; settings: Staphylococcus aureus, 20 h
Text: as §1, §3

[20] = 20 h, Pro. vulgaris GN76, cephalospolinase-producing, 10^6 cells per ml, read-out: MIC
[21] = E. coli NIHJ JC-2, 10^6 cells per ml, 37° C., 20 hours, read-out: MIC
[22] = S68, Ps. aeruginosa S-68, 10^6 cells per ml, 37° C., 20 hours, read-out: MIC
[23] = St. aureus FDA209P, 10^6 cells per ml, 37° C., 20 hours, read-out: MIC
[24] = Ent. cloacae IID977, 10^6 cells per ml, 37° C., 20 hours, read-out: MIC
[25] = E. coli TK-3, penicillinase-producing, 10^6 cells per ml, read-out: MIC
[26] = St. aureus F-137, penicillinase-producing, 10^6 cells per ml, read-out: MIC
[27] = Pseudomonas aeruginosa, 20 h, read-out: MIC
[28] = T111, 10^6 cells per ml, 20 hours, read-out: MIC

With `Cc1cc(O)ccc1-n1cc(C(=O)O)c(=O)cc1C1CCCC1` the MIC [1] was 0.2 µg/mL (≈ 0.638 µM), the MIC ([2]; Pseudomonas aeruginosa, GN918, 20 h) was 3.13 µg/mL (≈ 9.99 µM) and the MIC [3, 20] was 0.78 µg/mL (≈ 2.49 µM). It also gave an MIC ([4]; T111, 20 h, 10^6 cells per ml) of 3.13 µg/mL (≈ 9.99 µM), an MIC [5, 21] of 0.78 µg/mL (≈ 2.49 µM) and an MIC [6] of 0.78 µg/mL (≈ 2.49 µM). It also gave an MIC [7, 22] of 12.5 µg/mL (≈ 39.9 µM), an MIC ([8]; T216, 20 h, 10^6 cells per ml) of 3.13 µg/mL (≈ 9.99 µM) and an MIC [9, 23] of 0.78 µg/mL (≈ 2.49 µM). The MIC [10] was 3.13 µg/mL (≈ 9.99 µM), the MIC [11, 24] was 1.56 µg/mL (≈ 4.98 µM) and the MIC [12] was 0.39 µg/mL (≈ 1.24 µM). It also gave an MIC [13] of 12.5 µg/mL (≈ 39.9 µM), an MIC [14] of at most 0.05 µg/mL and an MIC [15] of 0.78 µg/mL (≈ 2.49 µM). For the same compound, the MIC [16, 25] was 1.56 µg/mL (≈ 4.98 µM), the MIC [17] was 6.25 µg/mL (≈ 19.9 µM) and the MIC [18] was 25 µg/mL (≈ 79.8 µM). The MIC [19, 26] was 0.39 µg/mL (≈ 1.24 µM).
`O=C(O)c1cn(-c2ccc(F)cc2)c(-c2ccc(N=Cc3ccc([N+](=O)[O-])o3)cc2)cc1=O` showed an MIC [1] of 0.39 µg/mL (≈ 0.872 µM), an MIC [2, 27] of 25 µg/mL (≈ 55.9 µM) and an MIC ([3]; GN76, 20 h) of 1.56 µg/mL (≈ 3.49 µM). It also gave an MIC [4, 28] of 12.5 µg/mL (≈ 27.9 µM), an MIC [5] of 1.56 µg/mL (≈ 3.49 µM) and an MIC [6] of 3.13 µg/mL (≈ 7 µM). The MIC [7, 22] was 25 µg/mL (≈ 55.9 µM), the MIC ([8]; T216, 10^6 cells per ml, 20 hours, read-out: MIC) was 3.13 µg/mL (≈ 7 µM) and the MIC [9] was 6.25 µg/mL (≈ 14 µM). For the same compound, the MIC [10] was 6.25 µg/mL (≈ 14 µM), the MIC [11] was 6.25 µg/mL (≈ 14 µM) and the MIC [12] was 0.78 µg/mL (≈ 1.74 µM). For the same compound, the MIC [13] was 25 µg/mL (≈ 55.9 µM), the MIC [14] was 0.39 µg/mL (≈ 0.872 µM) and the MIC [15] was 1.56 µg/mL (≈ 3.49 µM). For the same compound, the MIC [16, 25] was 3.13 µg/mL (≈ 7 µM), the MIC [17] was 25 µg/mL (≈ 55.9 µM) and the MIC [18] was 50 µg/mL (≈ 112 µM). The MIC [19] was 6.25 µg/mL (≈ 14 µM).
`O=C(O)c1cn(-c2ccc(F)cc2)c(C=Cc2ccncc2)cc1=O` was tested, and the MIC [1] was 0.2 µg/mL (≈ 0.595 µM), the MIC [2, 27] was 25 µg/mL (≈ 74.3 µM) and the MIC [3, 20] was 0.78 µg/mL (≈ 2.32 µM). For the same compound, the MIC [4, 28] was 12.5 µg/mL (≈ 37.2 µM), the MIC [5, 21] was 12.5 µg/mL (≈ 37.2 µM) and the MIC [6] was 12.5 µg/mL (≈ 37.2 µM). The MIC [7, 22] was 12.5 µg/mL (≈ 37.2 µM), the MIC ([8]; T216, 20 h, 10^6 cells per ml) was 6.25 µg/mL (≈ 18.6 µM) and the MIC [9, 23] was 12.5 µg/mL (≈ 37.2 µM). The MIC [10] was 6.25 µg/mL (≈ 18.6 µM), the MIC [11, 24] was 3.13 µg/mL (≈ 9.31 µM) and the MIC [12] was 0.39 µg/mL (≈ 1.16 µM). The MIC [13] was 50 µg/mL (≈ 149 µM), the MIC [14] was 0.2 µg/mL (≈ 0.595 µM) and the MIC [15] was 0.78 µg/mL (≈ 2.32 µM). For the same compound, the MIC [16, 25] was 1.56 µg/mL (≈ 4.64 µM), the MIC [17] was 6.25 µg/mL (≈ 18.6 µM) and the MIC [18] was 25 µg/mL (≈ 74.3 µM). It also gave an MIC [19, 26] of 12.5 µg/mL (≈ 37.2 µM).
Compound `Nc1ccc(-c2cc(=O)c(C(=O)O)cn2-c2ccc(O)cc2)cc1` has an MIC [1] of 0.1 µg/mL (≈ 0.31 µM), an MIC [2, 27] of 25 µg/mL (≈ 77.6 µM) and an MIC [3, 20] of 1.56 µg/mL (≈ 4.84 µM). For the same compound, the MIC [4, 28] was 25 µg/mL (≈ 77.6 µM), the MIC [5] was 3.13 µg/mL (≈ 9.71 µM) and the MIC [6] was 25 µg/mL (≈ 77.6 µM). It also gave an MIC [7, 22] of 25 µg/mL (≈ 77.6 µM), an MIC ([8]; T216, 20 h, 10^6 cells per ml) of 3.13 µg/mL (≈ 9.71 µM) and an MIC [9] of 3.13 µg/mL (≈ 9.71 µM). The MIC [10] was 12.5 µg/mL (≈ 38.8 µM), the MIC [11] was 12.5 µg/mL (≈ 38.8 µM) and the MIC [12] was 0.78 µg/mL (≈ 2.42 µM). The MIC [13] was 25 µg/mL (≈ 77.6 µM), the MIC [14] was 0.39 µg/mL (≈ 1.21 µM) and the MIC [15] was 3.13 µg/mL (≈ 9.71 µM). It also gave an MIC [16] of 3.13 µg/mL (≈ 9.71 µM), an MIC [17] of 12.5 µg/mL (≈ 38.8 µM) and an MIC [18] of 25 µg/mL (≈ 77.6 µM). It also gave an MIC [19, 26] of 6.25 µg/mL (≈ 19.4 µM).
`Cc1cc(O)ccc1-n1cc(C(=O)O)c(=O)cc1C1CCCCC1` [drawing 12] was tested, and the MIC [1] was 0.1 µg/mL (≈ 0.305 µM), the MIC [2, 27] was 3.13 µg/mL (≈ 9.56 µM) and the MIC [3, 20] was 3.13 µg/mL (≈ 9.56 µM). For the same compound, the MIC ([4]; T111, 20 h, 10^6 cells per ml) was 12.5 µg/mL (≈ 38.2 µM), the MIC [5] was 1.56 µg/mL (≈ 4.77 µM) and the MIC [6] was 0.78 µg/mL (≈ 2.38 µM). It also gave an MIC [7, 22] of 50 µg/mL (≈ 153 µM), an MIC ([8]; T216, 20 h, 10^6 cells per ml) of 6.25 µg/mL (≈ 19.1 µM) and an MIC [9, 23] of 0.78 µg/mL (≈ 2.38 µM). The MIC [10] was 6.25 µg/mL (≈ 19.1 µM), the MIC [11, 24] was 3.13 µg/mL (≈ 9.56 µM) and the MIC [12] was 0.78 µg/mL (≈ 2.38 µM). For the same compound, the MIC [13] was 50 µg/mL (≈ 153 µM), the MIC [14] was 0.2 µg/mL (≈ 0.611 µM) and the MIC [15] was 1.56 µg/mL (≈ 4.77 µM). The MIC [16, 25] was 3.13 µg/mL (≈ 9.56 µM), the MIC [17] was 12.5 µg/mL (≈ 38.2 µM) and the MIC [18] was over 100 µg/mL. It also gave an MIC [19, 26] of 0.78 µg/mL (≈ 2.38 µM).
For `CC(=O)Oc1ccc(-n2cc(C(=O)OCCN(C)C)c(=O)cc2-c2ccc(N(C)C)cc2)cc1` [drawing 37], the MIC [1] was at most 0.05 µg/mL, the MIC [2] was 3.13 µg/mL (≈ 6.75 µM) and the MIC [3, 20] was 1.56 µg/mL (≈ 3.37 µM). The MIC ([4]; T111, 20 h, 10^6 cells per ml) was 6.25 µg/mL (≈ 13.5 µM), the MIC [5, 21] was 0.39 µg/mL (≈ 0.841 µM) and the MIC [6] was 0.39 µg/mL (≈ 0.841 µM). For the same compound, the MIC ([7]; S68, 20 h) was 6.25 µg/mL (≈ 13.5 µM), the MIC ([8]; T216, 20 h, 10^6 cells per ml) was 3.13 µg/mL (≈ 6.75 µM) and the MIC [9, 23] was 0.39 µg/mL (≈ 0.841 µM). For the same compound, the MIC [10] was 3.13 µg/mL (≈ 6.75 µM), the MIC [11, 24] was 1.56 µg/mL (≈ 3.37 µM) and the MIC [12] was 0.2 µg/mL (≈ 0.431 µM). The MIC [13] was 12.5 µg/mL (≈ 27 µM), the MIC [14] was 0.39 µg/mL (≈ 0.841 µM) and the MIC [15] was 0.78 µg/mL (≈ 1.68 µM). The MIC [16, 25] was 1.56 µg/mL (≈ 3.37 µM), the MIC [17] was 6.25 µg/mL (≈ 13.5 µM) and the MIC [18] was 12.5 µg/mL (≈ 27 µM). The MIC [19, 26] was 0.39 µg/mL (≈ 0.841 µM).
